For test [1], the system named is transaminase derived from Arthrobacter. Kind of test: Usability as amino group donor, transaminase of present invention. It is filed as biochemical. To be noted: +/− without printed key, or words. An excerpt:
Further, the transaminase derived from Arthrobacter which can be used in the present invention is different from the above-mentioned enzyme derived from Brevibacterium in many other aspects.

The subject of test [2] is Arthrobacter species KNK168 strain. Kind of test: Inducer added to culture medium; (R)-DMA formation by the separated cells. The format is cell-based. To be noted: cells reacted 30° C., 20 hours, 1% 1-(3,4-dimethoxyphenyl)-2-propanone, 1% (RS)-1-methylpropylamine. On the procedure: When culturing the Arthrobacter species KNK168 strain by the method described in Example 1, (RS)-1-methylpropylamine, (RS)-1-methylbutylamine, (RS)-3-amino-2,2-dimethylbutane, (RS)-2-amino-1-butanol, or (RS)-1-phenylethylamine was added to the medium in place of (R)-1-(3,4-dimethoxyphenyl)-2-aminopropane ((R)-DMA). The cells were separated from the medium, and the reaction was carried out at 30° C. for 20 hours using the above cells in a reaction mixture containing 1% of 1-(3,4-dimethoxyphenyl)-2-propanone and 1% of (RS)-1-methylpropylamine.

The test system is the same in test [3]. Kind of test: Amino donor test; (R)-DMA formation by cultured cells. It is filed as cell-based. On the procedure: The cultured cells were harvested by centrifugation, and the harvested cells were suspended in a reaction mixture (pH 8.5) containing 1% of 1-(3,4-dimethoxyphenyl)-2-propanone, […] of Triton X-100, and 1% of an amino donor shown in Table 2. The components were reacted at 35° C. for 20 hours.

Test [4] has as its system benzylamine transaminase of Okada et al. Particulars: without addition = 100, cited from earlier work.
Test [5] deals with T1, ω-amino acid transaminase derived from Pseudomonas sp. F-1 (Pseudomonas putida, UniProt P28269).
T1 sequence (P28269 1-449): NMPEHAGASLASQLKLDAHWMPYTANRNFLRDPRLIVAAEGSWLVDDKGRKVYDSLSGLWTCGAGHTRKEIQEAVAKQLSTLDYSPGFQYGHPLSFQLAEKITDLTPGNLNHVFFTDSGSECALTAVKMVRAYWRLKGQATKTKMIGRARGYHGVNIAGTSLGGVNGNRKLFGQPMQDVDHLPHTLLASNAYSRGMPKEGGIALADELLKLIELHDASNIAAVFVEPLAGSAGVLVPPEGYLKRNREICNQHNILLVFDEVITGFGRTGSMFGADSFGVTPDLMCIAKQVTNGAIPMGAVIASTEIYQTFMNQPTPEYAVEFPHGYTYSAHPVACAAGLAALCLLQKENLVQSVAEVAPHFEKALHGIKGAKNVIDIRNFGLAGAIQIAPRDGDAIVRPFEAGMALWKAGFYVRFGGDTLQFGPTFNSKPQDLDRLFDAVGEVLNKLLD
Particulars: inhibitor 1 mM; without addition = 100; cited from earlier work.

Test [6] has as its system (R)-form-specific transaminase of Arthrobacter sp. KNK168. In words: Influence of reaction inhibitors on purified transaminase of present invention. The format is biochemical. To be noted: for Transaminase of Present Invention (Relative Activity: %) with inhibitor: inhibitor 1 mM, without addition = 100. The source says: The differences with the ω-amino acid transaminase derived from Pseudomonas sp. F-1 (Agric. Biol. Chem., 42, 2363-2367 (1978), Agric. Biol. Chem., 43, 1043-1048 (1979), J. Biol. Chem., 258, 2260-2265 (1983)) which have been well studied among the ω-amino acid transaminases, and with the benzylamine transaminase of Okada et al. (Japanese Patent Laid-Open No. Hei 6-178685) are summarized and shown in Table 2. In a case of the transaminase action in the present invention, the data of the purified enzyme are used, and in cases of those by other two enzymes, the data of the purified enzymes which are disclosed in each of the literature publication and patent publication are used. Pyruvic acid is used as an amino acceptor in all cases.

Test [7] concerns Arthrobacter species KNK168 strain. Kind of test: Resolution of racemic 2-amino-1-methoxypropane by cells with aldehyde amino acceptors. Particulars: 150 mM aldehyde as amino acceptor, 200 mM racemic 2-amino-1-methoxypropane, 30° C., 20 hours. The format is cell-based. On the procedure: The Arthrobacter species KNK168 strain was cultured in the same manner as in Example 13, and the cells were separated from 1 ml of the culture. The cells were suspended in 1 ml of a reaction mixture containing a 0.1 M Tris-hydrochloric acid buffer (pH 8.5), 50 mg of racemic 2-amino-1-methoxypropane, 37.5 mg of pyruvic acid, and 0.1% of sodium dodecyl sulfate. The components were reacted at 30° C. for 24 hours with stirring. As a result of the analysis after the reaction, 23.4 mg of 2-amino-1-methoxypropane remained, and its optical purity was 95% ee ((S)-form).
By carrying out the same reaction as in Example 14 using 200 mM racemic 2-amino-1-methoxypropane, and 150 mM n-butylaldehyde or propionaldehyde, the components were reacted at 30° C. for 20 hours. As a result of the analysis thereof, the (S)-form of 2-amino-1-methoxypropane was concentrated, and the ratio of the (S)-form was 76% in a case of using n-butylaldehyde, and 58% in a case of using propionaldehyde.

Where two headings read alike, the source gives them in different places.

On to `N[C@@H](CC(=O)O)C(=O)O` [aspartic acid], for which the “Amino Group Donor, Transaminase of Present Invention” value (shortened to “Amino Group Donor, Transaminase”) in test [1] was “cannot be used as an amino donor”.
Consider `CCCC(C)N` (racemic) [(RS)-1-Methylbutylamine], for which the “(R)-DMA Formed (%), inducer in culture medium” value (shortened to “(R)-DMA Formed (%), inducer”) in test [2] is 13.0%. Moreover, the “function as amino donor” value in test [3] is reported as “functioned as amino donors”.
Turning to `NNc1ccccc1` [Phenylhydrazine], in test [4] (inhibitor 1 mM), the “Transaminase of Okada et al. (Relative Activity: %) with inhibitor” value is 27%. In test [5], the “ω-Amino Acid Transaminase (Relative Activity: %) with inhibitor” value is on record as 6%. Moreover, in test [6], the “influence of reaction inhibitor on the transaminase derived from Arthrobacter” value is reported as “affected only a little” and the “Transaminase of Present Invention (Relative Activity: %) with inhibitor” value is recorded as 82%.
As for `O=S(=O)([O-])[O-].[Cu+2]` [CuSO4], the “Transaminase of Okada et al. (Relative Activity: %) with inhibitor” value in test [4] (inhibitor 0.5 mM) was 5%. In test [6], the “Transaminase of Present Invention (Relative Activity: %) with inhibitor” value was 44%.
Turning to `NC1C=CC=C(C(=O)O)C1` (racemic) [Gabaculine], in test [5], the “ω-Amino Acid Transaminase (Relative Activity: %) with inhibitor” value is on record as 0%. Besides, the “Transaminase of Present Invention (Relative Activity: %) with inhibitor” value in test [6] was determined as 24%.
On to `CCCC=O` [n-butylaldehyde], for which the “ratio of the (S)-form of 2-amino-1-methoxypropane” value in test [7] amounted to 76%.
As for `O=C(O)c1cc[c]([Hg][Cl])cc1` [p-Chloromercuribenzoic acid], in test [4] (inhibitor 0.1 mM), the “Transaminase of Okada et al. (Relative Activity: %) with inhibitor” value is given as 9%. Besides, in test [5], the “ω-Amino Acid Transaminase (Relative Activity: %) with inhibitor” value is reported as 100%. Moreover, in test [6], the “Transaminase of Present Invention (Relative Activity: %) with inhibitor” value was 53%.
Consider `CCC=O` [propionaldehyde], for which the “ratio of the (S)-form of 2-amino-1-methoxypropane” value in test [7] is 58%.
For `N[C@@H](CCC(=O)O)C(=O)O` [glutamic acid], the “Amino Group Donor, Transaminase” value in test [1] was “cannot be used as an amino donor”.
As for `CC(N)C(C)(C)C` (racemic) [(RS)-3-Amino-2,2-dimethylbutane], the “(R)-DMA Formed (%), inducer” value in test [2] came out at 18.6%.
Turning to `CC(N)c1ccccc1` (racemic) [(RS)-1-Phenylethylamine], the “(R)-DMA Formed (%), inducer” value in test [2] came out at 8.0%. In test [3], the “function as amino donor” value is on record as “most highly preferable”.
Turning to `COc1ccc(C[C@@H](C)N)cc1OC` [(R)-DMA, (R)-1-(3,4-dimethoxyphenyl)-2-aminopropane], the “(R)-DMA Formed (%), inducer” value in test [2] is on record as 0.9%.
Regarding `CCC(C)N` (racemic) [(RS)-1-Methylpropylamine], the “(R)-DMA Formed (%), inducer” value in test [2] was found to be 22.3%. The “function as amino donor” value in test [3] is reported as “functioned as amino donors”. Also, in test [3] (1% amino donor, 1% 1-(3,4-dimethoxyphenyl)-2-propanone, Triton X-100, pH 8.5, 35° C., 20 hours), the “(R)-DMA Formed (%), amino group donor” value worked out at 28.2%.
For `Cl.N` [ammonium chloride], the “Amino Group Donor, Transaminase” value in test [1] is “cannot be used as an amino donor”.
For the compound `CCC(N)CO` (racemic) [(RS)-2-Amino-1-butanol], the “(R)-DMA Formed (%), inducer” value in test [2] is listed as 12.9%.
`NO` [Hydroxylamine]: the “Transaminase of Okada et al. (Relative Activity: %) with inhibitor” value in test [4] (inhibitor 0.1 mM) was 30%. Also, in test [5], the “ω-Amino Acid Transaminase (Relative Activity: %) with inhibitor” value is given as 0%. In addition, in test [6], the “influence of reaction inhibitor on the transaminase derived from Arthrobacter” value is recorded as “affected only a little” and the “Transaminase of Present Invention (Relative Activity: %) with inhibitor” value was 17%.

Source of the values: patent US6344351B2, “(R)-transaminase from arthrobacter” (Kaneka Corporation, priority 1995, dated 2002).
